Values quoted from earlier work as cited in patent publication EP0225997A2, “Use of urea derivatives for preparing a pharmaceutical composition for the treatment of a virus-induced disease” (Die Deutsches Primatenzentrum GmbH, priority 1985, dated 1987).

System: HTLV-III
Conditions: Mitsuya et al. Science, 226 page 172-174, 1984

## Cc1ccc(C(=O)Nc2ccc(S(=O)(=O)O)c3cc(S(=O)(=O)O)cc(S(=O)(=O)O)c23)cc1NC(=O)c1cccc(NC(=O)Nc2cccc(C(=O)Nc3cc(C(=O)Nc4ccc(S(=O)(=O)O)c5cc(S(=O)(=O)O)cc(S(=O)(=O)O)c45)ccc3C)c2)c1 [suramin]
  HTLV-III replications in culture: reduce HTLV-III replications in culture
